Tests used:
[1] = system: 12 myeloma cell lines (Ark, BW288, CAG, Delta47, DF15, JJN3, kms11, L363, opm2, RPMI8226, U266 and XG1); test: Comparative study with existing anti-myeloma drugs (CellTiter-Glo); format: cell-based, human; settings: for response of 12 myeloma cell lines: 0.2 μM, in 5 days
Text: The results obtained from these controls are pooled together in the figure (●). The dose of each compound was set […].
Comparative study of NSC 338258 with existing anti-myeloma drugs Myeloma cell lines were exposed to NSC 338258 and existing anti myeloma drugs, Adriamycin® (Doxorubicin Hydrochloride) and Etoposide (VP-16-213) in ninety six well culture plates. The concentration of each compound was set […]. […] The cell growth was near zero in the following days (day 4 onwards; FIG. 6). It was also observed that 12 myeloma cell lines (Ark, BW288, CAG, Delta47, DF15, JJN3, kms11, L363, opm2, RPMI8226, U266 and XG1) responded to the same dosage (0.2 μM) of NSC 338258, VP-16-213 and Adriamycin in 5 days.

[2] = system: DNA strand breakage; settings: Multon et al., 1989; cited from earlier work
[3] = system: 8226/Dox1V cells; test: Drug resistance and cytotoxicity MTT assay, 8226/Dox1V; format: cell-based, human
Description: (§1) FIGS. 13A-13B show dose response of RPMI 8226 and 8226/Dox1V myeloma cells to EPED3 (FIG. 13A) or Dox (FIG. 13B). Cells were incubated for 96 hours with drug concentrations as indicated and analyzed by MTT assays; linear regression analysis was used to determine the IC50 for each drug (EPED3, FIG. 13A; Dox, FIG. 13B) and each cell line (RPMI8226, squares; 8226/Dox1V, circles). Data are presented as the mean of four independent experiments.
The 8226/Dox1V cell line was established by chronic exposure to Dox in presence of P-glycoprotein inhibitor, verapamil and was characterized by reduced expression and activity of topo II (Futscher et al., 1993).
(§2) The 8226/Dox1V and its parental line, RPMI 8226, cells were plated in 96-well plates at 10,000 cells/well and incubated with serial dilutions of EPED3 or Dox, as previously described (Landowski et al., 1999). After 96 hours incubation at 37° C., MTT was added to each well at a final concentration of 20 μg/ml and incubated an additional 4 hours. Plates were centrifuged and the media replaced with 0.1 ml DMSO to solublize the formazan complex. Optical density was measured at 540 nm using a Bio-Tek microplate spectrophotometer. IC50 values were calculated by linear regression analysis (Origins® Software Technologies, Inc.) of the log-linear plot for percent survival versus log drug concentration.
In drug resistance studies, the efficacy of EPED3 with 8226/Dox1V cells and the parental line, RPMI 8226 cells was investigated. Both cell lines were treated with either EPED3 or Dox, and the MTT assays were used to assess cell growth. Linear regression analysis of 96-hour dose-response curves was used to compare cytotoxicity of EPED3 in 8226/Dox1V and RPMI 8226 cell lines.

[4] = system: RPMI 8226 cells; test: Drug resistance and cytotoxicity MTT assay, RPMI 8226; format: cell-based, human; settings: Homo sapiens, 96 hours
Description: as §1, §2
In drug resistance studies, the efficacy of EPED3 with 8226/Dox1V cells and the parental line, RPMI 8226 cells was investigated. Both cell lines were treated with either EPED3 or Dox, and the MTT assays were used to assess cell growth. […]

Row | SMILES | response of 12 myeloma cell lines [1] | speed of response compared with EPED3 ([1]; myeloma cell lines (n=12), regardless of the concentration) | potency in DNA strand breakage, times less than m-AMSA [2] [times] | IC50 ([3]; Homo sapiens, 8226/Dox1V, 96 hours) [nM] | resistance of 8226/Dox1V versus parental RPMI 8226 ([3]; ratio of IC50, 96 hours) [fold] | IC50 [4] [nM]
1 | COc1cc([C@@H]2c3cc4c(cc3[C@@H](O[C@@H]3O[C@@H]5CO[C@@H](C)O[C@H]5[C@H](O)[C@H]3O)[C@H]3COC(=O)[C@H]23)OCO4)cc(OC)c1O [VP-16-213, Etoposide] | responded | much more delayed response |  |  |  | 
2 | Cc1c2cc[n+](C)cc2c(C)c2c1[nH]c1ccc(O)cc12 [Celiptium] |  |  | 50 |  |  | 
3 | COc1cccc2c1C(=O)c1c(O)c3c(c(O)c1C2=O)C[C@@](O)(C(=O)CO)C[C@@H]3O[C@H]1C[C@H](N)[C@H](O)[C@H](C)O1 [Dox, Doxorubicin, reference compound] | responded |  |  | 294 | 7.3 | 40

— US20070027175A1, “Antineoplastic activities of ellipticine and its derivatives” (priority 2005, published 2007)
